Target: T1, Aβ depositions in human CAA brain sections (Homo sapiens, UniProt P05067)
T1 construct: consistent with the immunohistochemical staining pattern observed in the same brain sections with anti-Aβ(1–40) antibody; from tissue; host or cells: post-mortem human brain, autopsy-confirmed CAA cases
Assay: In vitro autoradiography of human CAA brain sections
Assay type: binding
Settings: for Labeling of Aβ depositions in brain sections from another patient with CAA: patient with CAA (person)
Procedure: (§1) Six micrometer thick serial human brain sections of paraffin-embedded blocks were used for autoradiography. To completely deparaffinize the sections, they were incubated in xylene for 30 min two times and in 100% EtOH for 1 min two times. Subsequently, they were subjected to 1-min incubation in 90% EtOH and 1-min incubation in 70% EtOH, followed by a 5-min wash in water. Each slide was incubated with a 50% EtOH solution of [^99mTc]SB2A or [^99mTc]BT2B (370 kBq/mL) at room temperature for 1 h. […] The sections were washed in 50% EtOH for 3 min two times and exposed to a BAS imaging plate (Fuji Film, Tokyo, Japan) for 2 h. Autoradiographic images were obtained using a BAS5000 scanner system (Fuji Film). After autoradiographic examination, the same sections were immunostained by an antibody against Aβ(1–40) to confirm the presence of Aβ depositions. For immunohistochemical staining of Aβ(1–40), the sections were autoclaved for 15 min in 0.01 M citric acid buffer (pH 6.0) to activate the antigen. After three 5-min incubations in PBS-Tween 20 (PBST), they were incubated with anti-Aβ(1–40) primary antibody (BA27; Wako, Osaka, Japan) at room temperature overnight. Subsequently, they were incubated in PBST for 5 min three times, and incubated with biotinylated goat anti-mouse IgG (Wako) at room temperature for 3 h. After three 5-min incubations in PBST, the sections were incubated with Streptavidin-Peroxidase complex at room temperature for 30 min. After three 5-min incubations in PBST, they were incubated with diaminobenzidine (Merck, Hesse, Germany) as a chromogen for 5 min. After washing with water, the sections were observed under a microscope (BIOREVO BZ-9000; Keyence Corp., Osaka, Japan).
as §1, with “In vitro autoradiography of human CAA brain sections. Postmortem brain tissues from autopsy-confirmed cases of CAA (person, and person) and a control (person) were obtained from the Graduate School of Medicine, Kyoto University, National Cerebral and Cardiovascular Center, and BioChain Institute Inc. (California, USA), respectively. Experiments were performed according to the regulations of the ethics committee of Kyoto University. Six” for “Six”, “serial” for “serial human brain”, “Aβ(1-40)” for “Aβ(1–40)”, “Aβ(1-40),” for “Aβ(1–40),”, “anti-Aβ(1-40)” for “anti-Aβ(1–40)”, “After three 5-min incubations in PBST, the sections were incubated with Streptavidin-Peroxidase complex at room temperature for 30 min. After three 5-min incubations in PBST, they were incubated with diaminobenzidine (Merck, Hesse, Germany) as a chromogen for 5 min. After washing with water, the sections were observed under a microscope (BIOREVO BZ-9000; Keyence Corp., Osaka, Japan).” left out

T1 sequence (P05067 672-711 limits assumed): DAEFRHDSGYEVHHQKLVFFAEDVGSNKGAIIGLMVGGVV

| SMILES | Blocking of labeling of Aβ depositions with excess nonradioactive PIB (adjacent CAA brain section, PIB 1.0 mM) | Accumulation of radioactivity in control brain sections (autoradiography) (brain section from a healthy control (person)) | Labeling of Aβ depositions in CAA brain sections (autoradiography) (brain section from a patient with CAA (person), 370 kBq/mL, 1 h) | Labeling of Aβ depositions in brain sections from another patient with CAA |
| --- | --- | --- | --- | --- |
| CN(C)c1ccc(/C=C/c2ccc(C3=N[O][99Tc-]4(=[O])([NH]3)[NH2+]C(c3ccc(/C=C/c5ccc(N(C)C)cc5)cc3)=N[O]4)cc2)cc1 (single isomer, unassigned) [[^99mTc]SB2A] | blocked to a large extent | almost no accumulation of radioactivity | intensively labeled Aβ depositions | intensively labeled Aβ depositions |
| CN(C)c1ccc(-c2nc3ccc(C4=N[O][99Tc-]5(=[O])([NH]4)[NH2+]C(c4ccc6nc(-c7ccc(N(C)C)cc7)sc6c4)=N[O]5)cc3s2)cc1 [[^99mTc]BT2B] | – | – | – | intensively labeled Aβ depositions |

From PMC4867616, “Imaging of Cerebral Amyloid Angiopathy with Bivalent ^99mTc-Hydroxamamide Complexes” (Scientific Reports, 2016)
